Where a name gives a salt, the structure may show the parent alone. Read-outs that look alike come from different tables or passages of the source.
Key:
[1] = tested on: NCI-H460 non-small cell carcinoma cells; assay: Cytotoxicity on NCI-H460 tumour cells (sulphorodamine B); format: cell-based, human; settings: for IC50: 24 h treatment, then other 48 h in drug-free medium, sulphorodamine B; for cytotoxic effect on survival of NCI-H460 tumour cells (in words): comparison among the compounds
Experimental: (§1) To test the effects of the compounds on cell growth, NB4 human promyelocytic leukaemia, NCI-H460 non-small cell carcinoma cells and HCT-116 human colon carcinoma cells were used. NB4 and NCI-H460 tumour cells were grown RPMI 1640 containing 10% fetal bovine serum (GIBCO), whereas HCT-116 tumour cells were grown in McCoy's 5A containing 10% fetal bovine serum (GIBCO).
(§2) Tumour cells were seeded in 96-well tissue culture plates (Corning) at approximately 10% confluence and were allowed to attach and recover for at least 24 h. […] The plates were incubated for 24 h at 37° C. At the end of the treatment, for NB4 tumour cells in suspension, the procedure was performed as follows: medium culture was removed by centrifugation of the plates at 1600×g for 10 min and the surnatant was removed. 250 μl PBS were added, then the plates were centrifuged at 1600×g for 10 min, the surnatant was removed. 200 μl/well of medium culture RPMI 1640 containing 10% FCS were added and the plates were incubated at 37° C. for other 48 h. The plates were centrifuged again at 1600×g for 10 min, the medium culture was removed and 200 μl PBS and 50 μl of cold 80% TCA were added. The plates were incubated on ice for at least 1 h. TCA was removed, the plates were washed 3 times for immersion in distilled-water and dried on paper and at 40° C. for 5 min. Then 200 μl of 0.4% sulphorodamine B in 1% acetic acid were added. The plates were incubated at room temperature for other 30 min. Sulphorodamine B was removed, the plates were washed for immersion in 1% acetic acid for 3 times, then they were dried on paper and at 40° C. for 5 min. Then 200 μl Tris 10 mM were added, the plates were kept under stirring for 20 min. The survival cell was determined as optical density by a Multiskan spectrofluorimeter at 540 nm. For the tumour cells in adhesion (NCI-H460 and HCT-116), the procedure was as above mentioned, except that at the end of the treatment, the plates were washed by remotion of the surnatant and addition of PBS 3 times without centrifugation. Also the last day of the assay, the surnatant was removed without centrifugation.
(§3) The amount of cells killed was calculated as the percentage decrease in sulphorodamine B binding compared with control cultures.

[2] = tested on: NB4 human promyelocytic leukaemia; assay: Cytotoxicity on NB4 tumour cells (sulphorodamine B); format: cell-based
Experimental: as §1, §2, §3

[3] = tested on: HCT-116 human colon carcinoma cells; assay: Cytotoxicity on HCT-116 tumour cells (sulphorodamine B); format: cell-based; settings: read-out: IC50 ± SD, HCT-116 (concentration which inhibits the 50% of cell survival), 24 h treatment, then other 48 h in drug-free medium
Experimental: as §1, §2, §3

[4] = Homo sapiens, NCI-H460, read-out: IC50 ± SD, NCI-H460 (concentration which inhibits the 50% of cell survival), NCI-H460 tumour cells
[5] = Homo sapiens, read-out: IC50 ± SD, NB4 (concentration which inhibits the 50% of cell survival), NB4 tumour cells, 24 h treatment, then other 48 h in drug-free medium
[6] = read-out: IC50 ± SD, NB4 (concentration which inhibits the 50% of cell survival), NB4 tumour cells, 24 h treatment, then other 48 h in drug-free medium

`O=C(/C=C/c1ccc(C=NOCc2ccccc2)cc1)NO` [ST2840, (2E)-3-(4-{[(benzyloxy)imino]methyl}phenyl)-N-hydroxyacrylamide] gave an IC50 [1, 4] of 1600 ± 100 nM, an IC50 [2, 5] of 600 to 800 nM and an IC50 [2, 6] of 600 ± 6 nM. The IC50 ([3]; Homo sapiens) was 2800 ± 200 nM.

In the case of `O=C(/C=C/c1ccc2[nH]ccc2c1)NO` [ST2880, (2E)-N-hydroxy-3-(1H-indol-5-yl)acrylamide], the IC50 [1, 4] is reported as 5900 ± 500 nM, the “cytotoxic effect on survival of NCI-H460 tumour cells (in words)” value (shortened to “cytotoxic effect on survival”) ([1]; NCI-H460 tumour cells) is reported as “minor cytotoxic effect” and the IC50 [2, 5] is reported as 1400 to 2900 nM. It also gave an IC50 [2, 6] of 1800 ± 20 nM and an IC50 ([3]; Homo sapiens) of 2700 ± 300 nM.

With `O=C(/C=C/c1ccc(C=NNC(=O)c2ccc(Cl)cc2)cc1)NO` [ST2888, (2E)-N-hydroxy-3-(4-{[(4-chlorobenzoyl)hydrazono]-methyl}phenyl)acrylamide] the IC50 [1, 4] was 3400 ± 300 nM, the IC50 [2, 5] was 600 to 800 nM and the IC50 [2, 6] was 800 ± 20 nM. It also gave an IC50 ([3]; Homo sapiens) of 1800 ± 100 nM.

In the case of `O=C(/C=C/c1ccc(C=NO)cc1)NO` [ST2983, (2E)-N-hydroxy-3-{4-[(hydroxyimino)methyl]phenyl}acrylamide], the IC50 [1, 4] is reported as 6300 ± 400 nM, the “cytotoxic effect on survival” value ([1]; NCI-H460 tumour cells) is reported as “minor cytotoxic effect” and the IC50 ([3]; Homo sapiens) is reported as 3500 ± 300 nM.

Work on `C=CCON=Cc1ccc(/C=C/C(=O)NO)cc1` [ST2984, (2E)-N-hydroxy-3-(4-{[(allyloxy)imino]methyl}phenyl)acrylamide] yielded an IC50 [1, 4] of 3200 ± 90 nM, an IC50 [2, 5] of 1400 to 2900 nM and an IC50 [2, 6] of 1400 ± 70 nM. It also gave an IC50 ([3]; Homo sapiens) of 3500 ± 70 nM.

For `O=C(/C=C/c1ccc(C=NOc2ccccc2)cc1)NO` [ST2985, (2E)-N-hydroxy-3-{4-[(phenoxyimino)methyl]phenyl}acrylamide], the IC50 [1, 4] was 5100 ± 300 nM, the “cytotoxic effect on survival” value ([1]; NCI-H460 tumour cells) was “minor cytotoxic effect” and the IC50 [2, 5] was 1400 to 2900 nM. It also gave an IC50 [2, 6] of 2700 ± 90 nM and an IC50 ([3]; Homo sapiens) of 3700 ± 400 nM.

Work on `O=C(/C=C/c1ccc(C=NOCc2c(F)c(F)c(F)c(F)c2F)cc1)NO` [ST2986, (2E)-N-hydroxy-3-[4-({[(pentafluorobenzyl)oxy]imino}-methyl)phenyl]-acryl-amide] yielded an IC50 ([1]; read-out: IC50 ± SD, NCI-H460 (concentration which inhibits the 50% of cell survival), NCI-H460 tumour cells) of 1600 ± 70 nM, an IC50 [2, 6] of 700 ± 70 nM and an IC50 [3] of 2400 ± 100 nM.

Work on `O=C(/C=C/c1ccc(C=NOCc2ccc([N+](=O)[O-])cc2)cc1)NO` [ST2987, (2E)-N-hydroxy-3-[4-({[(4-nitrobenzyl)oxy]imino}-methyl)phenyl]acrylamide] yielded an IC50 [1, 4] of 2600 ± 100 nM, an IC50 [2, 5] of 600 to 800 nM and an IC50 [2, 6] of 800 ± 10 nM. For the same compound, the IC50 ([3]; Homo sapiens) was 1200 ± 200 nM.

`COC(=O)c1ccc(CON=Cc2ccc(/C=C/C(=O)NO)cc2)cc1` [ST3049, (2E)-N-hydroxy-3-[4-({[(4-methoxycarbonylbenzyl)oxy]imino}-methyl)phenyl]-acrylamide] showed an IC50 [1, 4] of 1700 ± 100 nM, an IC50 [2, 5] of 600 to 800 nM and an IC50 [2, 6] of 800 ± 90 nM. For the same compound, the IC50 ([3]; Homo sapiens) was 1700 ± 100 nM.

In the case of `O=C(/C=C/c1ccc(C=NOCCN2CCOCC2)cc1)NO` [ST3050, (2E)-N-hydroxy-3-{4-[(2-morpholin-4-ylethoxyimino)methyl]-phenyl}-acryl-amide], the IC50 [1, 4] is reported as 2900 ± 400 nM, the IC50 [2, 5] is reported as 1400 to 2900 nM and the IC50 [2, 6] is reported as 1700 ± 200 nM. The IC50 ([3]; Homo sapiens) was 1800 ± 100 nM.

For `Nc1ccccc1NC(=O)/C=C/c1ccc(C=NOCc2ccc([N+](=O)[O-])cc2)cc1` [ST3070, (2E)-N-(2-aminophenyl)-3-[4-({[(4-nitrobenzyl)oxy]imino}-methyl)phenyl]-acrylamide], the IC50 [1, 4] was 200000 nM, the IC50 [2, 5] was > 20000 nM and the IC50 ([3]; Homo sapiens) was 33400 ± 3900 nM.

With `O=C(O)/C=C/c1ccc(C=NOCc2ccc([N+](=O)[O-])cc2)cc1` [ST3075, (2E)-3-[4-({[(4-nitrobenzyl)oxy]imino}-methyl)phenyl]acrylic acid] the IC50 [1, 4] was 21300 ± 3000 nM, the IC50 [2, 5] was > 20000 nM and the IC50 ([3]; Homo sapiens) was > 20000 nM.

For `O=C(O)/C=C/c1ccc(C=NOCc2ccccc2)cc1` [ST3076, (2E)-3-(4-{[(benzyloxy)imino]methyl}phenyl)acrylic acid], the IC50 [2, 5] was > 20000 nM and the IC50 ([3]; Homo sapiens) was > 20000 nM.

With `O=C(CCc1ccc(C=NOCc2ccc([N+](=O)[O-])cc2)cc1)NO` [ST3330, N-hydroxy-3-[4-({[(4-nitrobenzyl)oxy]imino}methyl)phenyl]propanamide] the IC50 [1, 4] was 7700 ± 1000 nM, the “cytotoxic effect on survival” value ([1]; NCI-H460 tumour cells) was “minor cytotoxic effect” and the IC50 [2, 5] was 950 ± 60 nM. For the same compound, the IC50 ([3]; Homo sapiens) was 3100 ± 100 nM.

`Nc1ccccc1NC(=O)/C=C/c1ccc(C=NOCCN2CCOCC2)cc1` [ST3573, (2E)-N-(2-Amino-phenyl)-3-{4-[(2-morpholin-4-yl-ethoxyimino)methyl]-phenyl}-acrylamide hydrochloride] was tested, and the IC50 [1, 4] was > 20000 nM, the IC50 [2, 5] was 8870 ± 600 nM and the IC50 ([3]; Homo sapiens) was > 20000 nM.

For `Cl.O=C(/C=C/c1cccc(C=NOCCN2CCOCC2)c1)NO` [ST3576, (2E)-N-hydroxy-3-{3-[(2-morpholin-4-ylethoxyimino)methyl]-phenyl}-acryl-amide hydrochloride], the IC50 [1, 4] was 6600 ± 800 nM, the “cytotoxic effect on survival” value ([1]; NCI-H460 tumour cells) was “minor cytotoxic effect” and the IC50 [2, 5] was 1400 to 2900 nM. It also gave an IC50 ([2]; read-out: IC50 ± SD, NB4 (concentration which inhibits the 50% of cell survival), NB4 tumour cells, 24 h treatment, then other 48 h in drug-free medium, hydrochloride) of 1890 ± 80 nM and an IC50 ([3]; Homo sapiens) of 4000 ± 500 nM.

Source: patent publication US7816386B2, “Cinnamic, phenylpropiolic and phenylpropanoic acid derivatives useful as anti-tumor agents” (Sigma-Tau Industrie Farmaceutiche Riunite S.p.A., priority 2005, dated 2010)
